Test results: paper PMC9571063 (Molecules, 2022)

Assays:
BRSK2 = biological target: T1, BRSK2 (Homo sapiens, UniProt Q8IWQ3); test: KINOMEscan; format: binding; conditions: read-out: Percent Control
T1 construct: purchased Eurofins DiscoverX KINOMEscan (scanMAX 468)

OSR1 = biological target: T2, OSR1 (Homo sapiens, UniProt O95747); test: KINOMEscan; format: binding; conditions: read-out: Percent Control
T2 construct: purchased Eurofins DiscoverX KINOMEscan (scanMAX 468)

[1] = biological target: T3, JAK2(JH1domain-catalytic) (Homo sapiens, UniProt O60674); test: KINOMEscan; format: binding; conditions: read-out: Percent Control
T3 construct: JAK2(JH1domain-catalytic); purchased Eurofins DiscoverX KINOMEscan (scanMAX 468)

[2] = biological target: T4, RSK4(Kin.Dom.2-C-terminal) (Homo sapiens, UniProt Q9UK32); test: KINOMEscan; format: binding; conditions: read-out: Percent Control
T4 construct: RSK4(Kin.Dom.2-C-terminal); purchased Eurofins DiscoverX KINOMEscan (scanMAX 468)
T4 sequence (Q9UK32 401-745 limits assumed): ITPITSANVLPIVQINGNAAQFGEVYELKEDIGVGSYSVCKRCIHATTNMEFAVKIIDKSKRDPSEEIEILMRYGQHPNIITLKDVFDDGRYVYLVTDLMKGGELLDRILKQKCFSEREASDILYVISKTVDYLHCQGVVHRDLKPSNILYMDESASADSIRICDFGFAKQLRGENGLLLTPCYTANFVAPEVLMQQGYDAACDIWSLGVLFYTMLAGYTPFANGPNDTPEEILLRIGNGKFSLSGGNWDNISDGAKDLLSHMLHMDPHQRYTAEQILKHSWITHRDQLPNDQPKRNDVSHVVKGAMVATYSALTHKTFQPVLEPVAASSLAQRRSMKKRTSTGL

PRKD2 = biological target: T5, PRKD2 (Homo sapiens, UniProt Q9BZL6); test: KINOMEscan; format: binding; conditions: read-out: Percent Control
T5 construct: purchased Eurofins DiscoverX KINOMEscan (scanMAX 468)
T5 sequence (Q9BZL6 whole entry): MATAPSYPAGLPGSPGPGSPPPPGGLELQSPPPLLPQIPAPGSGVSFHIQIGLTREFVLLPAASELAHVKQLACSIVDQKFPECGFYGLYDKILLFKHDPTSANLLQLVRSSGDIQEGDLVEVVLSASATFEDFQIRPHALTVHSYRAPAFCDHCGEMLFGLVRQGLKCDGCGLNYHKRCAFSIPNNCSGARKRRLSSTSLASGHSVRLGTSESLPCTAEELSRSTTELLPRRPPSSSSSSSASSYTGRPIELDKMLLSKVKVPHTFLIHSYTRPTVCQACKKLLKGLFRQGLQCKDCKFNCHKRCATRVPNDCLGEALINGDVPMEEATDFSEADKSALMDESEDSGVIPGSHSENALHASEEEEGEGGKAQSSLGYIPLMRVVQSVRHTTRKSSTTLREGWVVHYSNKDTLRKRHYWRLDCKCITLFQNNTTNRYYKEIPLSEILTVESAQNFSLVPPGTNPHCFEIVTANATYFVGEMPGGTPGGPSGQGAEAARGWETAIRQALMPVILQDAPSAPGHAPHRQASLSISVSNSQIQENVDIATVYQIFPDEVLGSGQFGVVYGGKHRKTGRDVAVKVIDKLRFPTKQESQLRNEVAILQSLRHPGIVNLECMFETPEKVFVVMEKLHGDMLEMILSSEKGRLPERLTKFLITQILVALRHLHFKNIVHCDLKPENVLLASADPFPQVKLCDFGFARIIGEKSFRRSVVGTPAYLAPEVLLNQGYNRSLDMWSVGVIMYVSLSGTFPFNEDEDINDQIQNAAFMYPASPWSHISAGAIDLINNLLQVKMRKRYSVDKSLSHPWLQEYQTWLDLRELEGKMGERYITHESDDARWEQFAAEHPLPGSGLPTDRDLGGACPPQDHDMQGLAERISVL

PLK3 = biological target: T6, PLK3 (Homo sapiens, UniProt Q9H4B4); test: KINOMEscan; format: binding; conditions: read-out: Percent Control
T6 construct: purchased Eurofins DiscoverX KINOMEscan (scanMAX 468)

MKNK1 = biological target: T7, MKNK1 (Homo sapiens, UniProt Q9BUB5); test: KINOMEscan; format: binding; conditions: read-out: Percent Control
T7 construct: purchased Eurofins DiscoverX KINOMEscan (scanMAX 468)

INSRR = biological target: T8, INSRR (Homo sapiens, UniProt P14616); test: KINOMEscan; format: binding; conditions: read-out: Percent Control
T8 construct: purchased Eurofins DiscoverX KINOMEscan (scanMAX 468)

MYO3A = biological target: T9, MYO3A (Homo sapiens, UniProt Q8NEV4); test: KINOMEscan; format: binding; conditions: read-out: Percent Control
T9 construct: purchased Eurofins DiscoverX KINOMEscan (scanMAX 468)

LTK = biological target: T10, LTK (Homo sapiens, UniProt P29376); test: KINOMEscan; format: binding; conditions: read-out: Percent Control
T10 construct: purchased Eurofins DiscoverX KINOMEscan (scanMAX 468)

PLK4 = biological target: T11, PLK4 (Homo sapiens, UniProt O00444); test: KINOMEscan; format: binding; conditions: read-out: Percent Control
T11 construct: purchased Eurofins DiscoverX KINOMEscan (scanMAX 468)

PIK3CA(I800L) = biological target: T12, PIK3CA(I800L) (Homo sapiens, UniProt P42336, I800L); test: KINOMEscan; format: binding; conditions: read-out: Percent Control
T12 construct: purchased Eurofins DiscoverX KINOMEscan (scanMAX 468)

PIK3CA(Q546K) = biological target: T13, PIK3CA(Q546K) (Homo sapiens, UniProt P42336, Q546K); test: KINOMEscan; format: binding; conditions: read-out: Percent Control
T13 construct: purchased Eurofins DiscoverX KINOMEscan (scanMAX 468)

HASPIN = biological target: T14, HASPIN (Homo sapiens, UniProt Q8TF76); test: KINOMEscan; format: binding; conditions: read-out: Percent Control
T14 construct: purchased Eurofins DiscoverX KINOMEscan (scanMAX 468)
T14 sequence (Q8TF76 whole entry): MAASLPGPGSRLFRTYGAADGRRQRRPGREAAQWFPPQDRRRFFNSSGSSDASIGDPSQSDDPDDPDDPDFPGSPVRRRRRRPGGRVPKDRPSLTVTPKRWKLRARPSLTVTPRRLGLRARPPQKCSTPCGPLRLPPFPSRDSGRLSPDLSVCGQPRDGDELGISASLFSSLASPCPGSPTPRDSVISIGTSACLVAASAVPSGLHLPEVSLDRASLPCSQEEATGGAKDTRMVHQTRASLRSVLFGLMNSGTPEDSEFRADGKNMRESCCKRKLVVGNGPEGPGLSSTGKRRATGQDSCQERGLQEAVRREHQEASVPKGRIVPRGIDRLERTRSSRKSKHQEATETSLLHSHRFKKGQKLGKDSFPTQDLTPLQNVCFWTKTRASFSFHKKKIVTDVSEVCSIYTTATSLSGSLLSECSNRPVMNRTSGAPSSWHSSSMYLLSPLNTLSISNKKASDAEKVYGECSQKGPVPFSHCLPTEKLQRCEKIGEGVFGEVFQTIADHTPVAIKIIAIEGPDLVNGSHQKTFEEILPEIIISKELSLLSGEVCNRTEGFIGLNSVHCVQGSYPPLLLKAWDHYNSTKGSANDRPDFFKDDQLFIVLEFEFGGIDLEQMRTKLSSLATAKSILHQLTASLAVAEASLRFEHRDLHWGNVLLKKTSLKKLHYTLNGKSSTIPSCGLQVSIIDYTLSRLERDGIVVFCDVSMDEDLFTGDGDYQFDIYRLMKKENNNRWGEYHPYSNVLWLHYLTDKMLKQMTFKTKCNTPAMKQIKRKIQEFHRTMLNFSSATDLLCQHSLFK

MELK = biological target: T15, MELK (Homo sapiens, UniProt Q14680); test: KINOMEscan; format: binding; conditions: read-out: Percent Control
T15 construct: purchased Eurofins DiscoverX KINOMEscan (scanMAX 468)

EGFR(L861Q) = biological target: T16, EGFR(L861Q) (Homo sapiens, UniProt P00533, L861Q); test: KINOMEscan; format: binding; conditions: read-out: Percent Control
T16 construct: purchased Eurofins DiscoverX KINOMEscan (scanMAX 468)

EIF2AK1 = biological target: T17, EIF2AK1 (Homo sapiens, UniProt Q9BQI3); test: KINOMEscan; format: binding; conditions: read-out: Percent Control
T17 construct: purchased Eurofins DiscoverX KINOMEscan (scanMAX 468)

[3] = biological target: T18, ABL1(T315I)-nonphosphorylated (Homo sapiens, UniProt P00519, T315I); test: KINOMEscan; format: binding; conditions: read-out: Percent Control
T18 construct: purchased Eurofins DiscoverX KINOMEscan (scanMAX 468)

HuH7 = system: HuH7; design: method as in ref 14 (a number printed in a supplementary file, which may have a reference list of its own: not looked up in the article's list); conditions: DB18[a], footnote not given; read-out: Cytotoxic studies IC50 HuH7; cited from earlier work
MYLK2 = biological target: T19, MYLK2 (Homo sapiens, UniProt Q9H1R3); test: KINOMEscan; format: binding; conditions: read-out: Percent Control
T19 construct: purchased Eurofins DiscoverX KINOMEscan (scanMAX 468)

NDR1 = biological target: T20, NDR1 (Homo sapiens, UniProt Q15208); test: KINOMEscan; format: binding; conditions: read-out: Percent Control
T20 construct: purchased Eurofins DiscoverX KINOMEscan (scanMAX 468)

MTOR = biological target: T21, MTOR (Homo sapiens, UniProt P42345); test: KINOMEscan; format: binding; conditions: read-out: Percent Control
T21 construct: purchased Eurofins DiscoverX KINOMEscan (scanMAX 468)

EPHA3 = biological target: T22, EPHA3 (Homo sapiens, UniProt P29320); test: KINOMEscan; format: binding; conditions: read-out: Percent Control
T22 construct: purchased Eurofins DiscoverX KINOMEscan (scanMAX 468)

DRAK2 = biological target: T23, DRAK2 (Homo sapiens, UniProt O94768); test: KINOMEscan; format: binding; conditions: read-out: Percent Control
T23 construct: purchased Eurofins DiscoverX KINOMEscan (scanMAX 468)

CSK = biological target: T24, CSK (Homo sapiens, UniProt P41240); test: KINOMEscan; format: binding; conditions: read-out: Percent Control
T24 construct: purchased Eurofins DiscoverX KINOMEscan (scanMAX 468)

FLT3(ITD) = test: KINOMEscan; format: binding, human; conditions: 1 μM
TBK1 = biological target: T25, TBK1 (Homo sapiens, UniProt Q9UHD2); test: KINOMEscan; format: binding; conditions: read-out: Percent Control
T25 construct: purchased Eurofins DiscoverX KINOMEscan (scanMAX 468)
T25 sequence (Q9UHD2 whole entry): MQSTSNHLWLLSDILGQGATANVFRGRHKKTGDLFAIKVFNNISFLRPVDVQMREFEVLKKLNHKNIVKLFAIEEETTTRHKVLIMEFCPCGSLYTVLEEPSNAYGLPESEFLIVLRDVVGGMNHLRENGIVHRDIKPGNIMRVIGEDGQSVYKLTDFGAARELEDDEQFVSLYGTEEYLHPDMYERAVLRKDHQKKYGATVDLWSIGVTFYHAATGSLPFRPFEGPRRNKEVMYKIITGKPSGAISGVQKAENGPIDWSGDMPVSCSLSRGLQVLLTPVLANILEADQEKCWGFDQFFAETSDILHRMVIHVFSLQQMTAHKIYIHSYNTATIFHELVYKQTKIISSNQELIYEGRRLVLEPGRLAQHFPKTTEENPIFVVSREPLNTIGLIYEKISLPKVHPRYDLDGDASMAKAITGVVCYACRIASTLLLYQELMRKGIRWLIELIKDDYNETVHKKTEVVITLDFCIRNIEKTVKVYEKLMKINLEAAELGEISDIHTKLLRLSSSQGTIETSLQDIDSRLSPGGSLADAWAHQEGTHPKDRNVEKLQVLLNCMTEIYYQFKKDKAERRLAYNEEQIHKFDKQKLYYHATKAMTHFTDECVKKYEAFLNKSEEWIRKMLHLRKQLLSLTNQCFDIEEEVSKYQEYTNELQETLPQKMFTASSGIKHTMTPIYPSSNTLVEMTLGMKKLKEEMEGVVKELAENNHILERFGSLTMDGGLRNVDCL

CDK8 = biological target: T26, CDK8 (Homo sapiens, UniProt P49336); test: KINOMEscan; format: binding; conditions: read-out: Percent Control
T26 construct: purchased Eurofins DiscoverX KINOMEscan (scanMAX 468)

DMPK2 = biological target: T27, DMPK2 (Homo sapiens, UniProt Q6DT37); test: KINOMEscan; format: binding; conditions: read-out: Percent Control
T27 construct: purchased Eurofins DiscoverX KINOMEscan (scanMAX 468)

TLK1 = biological target: T28, TLK1 (Homo sapiens, UniProt Q9UKI8); test: KINOMEscan; format: binding; conditions: read-out: Percent Control
T28 construct: purchased Eurofins DiscoverX KINOMEscan (scanMAX 468)

QSK = biological target: T29, QSK (Homo sapiens, UniProt Q9Y2K2); test: KINOMEscan; format: binding; conditions: read-out: Percent Control
T29 construct: purchased Eurofins DiscoverX KINOMEscan (scanMAX 468)

LKB1 = biological target: T30, LKB1 (Homo sapiens, UniProt Q15831); test: KINOMEscan; format: binding; conditions: read-out: Percent Control
T30 construct: purchased Eurofins DiscoverX KINOMEscan (scanMAX 468)

[4] = biological target: T31, RPS6KA4(Kin.Dom.1-N-terminal) (Homo sapiens, UniProt O75676); test: KINOMEscan; format: binding; conditions: read-out: Percent Control
T31 construct: RPS6KA4(Kin.Dom.1-N-terminal); purchased Eurofins DiscoverX KINOMEscan (scanMAX 468)

ABL1-nonphosphorylated = biological target: T32, ABL1-nonphosphorylated (Homo sapiens, UniProt P00519); test: KINOMEscan; format: binding; conditions: read-out: Percent Control
T32 construct: purchased Eurofins DiscoverX KINOMEscan (scanMAX 468)

NEK3 = biological target: T33, NEK3 (Homo sapiens, UniProt P51956); test: KINOMEscan; format: binding; conditions: read-out: Percent Control
T33 construct: purchased Eurofins DiscoverX KINOMEscan (scanMAX 468)

CAMK2G = biological target: T34, CAMK2G (Homo sapiens, UniProt Q13555); test: KINOMEscan; format: binding; conditions: read-out: Percent Control
T34 construct: purchased Eurofins DiscoverX KINOMEscan (scanMAX 468)
T34 sequence (Q13555 whole entry): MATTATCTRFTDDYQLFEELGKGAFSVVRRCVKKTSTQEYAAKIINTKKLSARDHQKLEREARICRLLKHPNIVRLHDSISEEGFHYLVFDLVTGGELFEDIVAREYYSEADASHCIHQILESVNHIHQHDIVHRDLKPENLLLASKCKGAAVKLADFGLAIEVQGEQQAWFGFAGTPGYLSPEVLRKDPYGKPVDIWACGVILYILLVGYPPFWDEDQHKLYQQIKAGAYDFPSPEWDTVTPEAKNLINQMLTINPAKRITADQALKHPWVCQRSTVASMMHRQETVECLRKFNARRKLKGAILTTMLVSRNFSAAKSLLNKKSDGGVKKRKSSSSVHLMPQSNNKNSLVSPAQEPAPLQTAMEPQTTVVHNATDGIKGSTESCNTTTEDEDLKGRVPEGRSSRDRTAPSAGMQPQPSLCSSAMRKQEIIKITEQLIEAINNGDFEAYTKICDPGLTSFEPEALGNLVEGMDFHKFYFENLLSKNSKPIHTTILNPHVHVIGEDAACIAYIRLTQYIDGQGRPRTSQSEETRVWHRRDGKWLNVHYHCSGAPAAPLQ

RIOK3 = biological target: T35, RIOK3 (Homo sapiens, UniProt O14730); test: KINOMEscan; format: binding; conditions: read-out: Percent Control
T35 construct: purchased Eurofins DiscoverX KINOMEscan (scanMAX 468)

[5] = biological target: T36, RPS6KA5(Kin.Dom.1-N-terminal) (Homo sapiens, UniProt O75582); test: KINOMEscan; format: binding; conditions: read-out: Percent Control
T36 construct: RPS6KA5(Kin.Dom.1-N-terminal); purchased Eurofins DiscoverX KINOMEscan (scanMAX 468)

PCTK3 = biological target: T37, PCTK3 (Homo sapiens, UniProt Q07002); test: KINOMEscan; format: binding; conditions: read-out: Percent Control
T37 construct: purchased Eurofins DiscoverX KINOMEscan (scanMAX 468)

MARK2 = biological target: T38, MARK2 (Homo sapiens, UniProt Q7KZI7); test: KINOMEscan; format: binding; conditions: read-out: Percent Control
T38 construct: purchased Eurofins DiscoverX KINOMEscan (scanMAX 468)
T38 sequence (Q7KZI7 whole entry): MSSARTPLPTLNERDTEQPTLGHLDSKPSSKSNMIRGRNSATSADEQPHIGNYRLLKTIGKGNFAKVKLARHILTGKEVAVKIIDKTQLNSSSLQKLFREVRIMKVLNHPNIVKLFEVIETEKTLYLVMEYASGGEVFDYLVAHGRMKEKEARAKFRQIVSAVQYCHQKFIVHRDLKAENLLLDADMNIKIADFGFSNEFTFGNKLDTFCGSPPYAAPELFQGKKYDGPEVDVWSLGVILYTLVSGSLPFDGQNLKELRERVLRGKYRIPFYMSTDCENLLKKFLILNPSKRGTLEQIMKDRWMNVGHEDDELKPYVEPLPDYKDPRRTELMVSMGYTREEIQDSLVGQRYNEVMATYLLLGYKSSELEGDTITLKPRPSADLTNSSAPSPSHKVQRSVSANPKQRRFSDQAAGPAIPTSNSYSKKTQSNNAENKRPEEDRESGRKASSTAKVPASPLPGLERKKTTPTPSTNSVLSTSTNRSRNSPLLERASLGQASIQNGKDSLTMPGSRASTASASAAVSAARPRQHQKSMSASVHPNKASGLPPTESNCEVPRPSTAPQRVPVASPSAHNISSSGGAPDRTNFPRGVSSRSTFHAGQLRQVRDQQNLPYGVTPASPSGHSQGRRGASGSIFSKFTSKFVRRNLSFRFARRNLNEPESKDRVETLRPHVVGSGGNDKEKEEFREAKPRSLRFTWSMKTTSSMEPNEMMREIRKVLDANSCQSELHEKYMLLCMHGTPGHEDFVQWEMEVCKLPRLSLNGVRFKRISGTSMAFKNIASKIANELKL

T1 sequence (Q8IWQ3 whole entry): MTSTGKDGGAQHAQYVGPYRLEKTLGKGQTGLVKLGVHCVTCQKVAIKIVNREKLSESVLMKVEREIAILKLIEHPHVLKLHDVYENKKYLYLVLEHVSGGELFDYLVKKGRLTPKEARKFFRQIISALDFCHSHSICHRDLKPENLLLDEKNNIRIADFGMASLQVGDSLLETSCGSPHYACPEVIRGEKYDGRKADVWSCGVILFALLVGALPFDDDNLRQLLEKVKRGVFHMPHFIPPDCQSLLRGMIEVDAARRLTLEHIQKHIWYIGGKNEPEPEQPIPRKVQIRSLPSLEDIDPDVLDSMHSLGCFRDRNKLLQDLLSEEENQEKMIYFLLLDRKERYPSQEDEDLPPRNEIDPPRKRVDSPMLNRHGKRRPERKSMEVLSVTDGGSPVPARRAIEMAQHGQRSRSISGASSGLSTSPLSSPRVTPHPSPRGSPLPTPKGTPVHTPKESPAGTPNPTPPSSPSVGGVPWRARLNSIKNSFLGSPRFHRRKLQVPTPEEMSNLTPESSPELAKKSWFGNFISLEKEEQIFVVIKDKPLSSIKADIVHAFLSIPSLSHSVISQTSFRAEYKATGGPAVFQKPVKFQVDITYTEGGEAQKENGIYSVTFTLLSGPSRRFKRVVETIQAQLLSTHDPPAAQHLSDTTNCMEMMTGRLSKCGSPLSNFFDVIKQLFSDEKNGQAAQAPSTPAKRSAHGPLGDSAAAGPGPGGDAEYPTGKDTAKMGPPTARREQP

With Cc1ccc(-n2cc(COc3cccc4cnc(Nc5cccc(Cl)c5)nc34)nn2)c([N+](=O)[O-])c1 [DB18] the remaining binding at 1 µM (BRSK2) was 97%, the remaining binding at 1 µM (OSR1) was 100% and the remaining binding at 1 µM [1] was 100%. The remaining binding at 1 µM [2] was 100%, the remaining binding at 1 µM (PRKD2) was 100% and the remaining binding at 1 µM (PLK3) was 98%. It also gave a remaining binding at 1 µM (MKNK1) of 100%, a remaining binding at 1 µM (INSRR) of 100% and a remaining binding at 1 µM (MYO3A) of 100%. The remaining binding at 1 µM (LTK) was 80%, the remaining binding at 1 µM (PLK4) was 99% and the remaining binding at 1 µM (PIK3CA(I800L)) was 77%. The remaining binding at 1 µM (PIK3CA(Q546K)) was 96%, the remaining binding at 1 µM (HASPIN) was 72% and the remaining binding at 1 µM (MELK) was 100%. The remaining binding at 1 µM (EGFR(L861Q)) was 99%, the remaining binding at 1 µM (EIF2AK1) was 100% and the remaining binding at 1 µM [3] was 89%. For the same compound, the IC50 (HuH7) was 25 µM, the remaining binding at 1 µM (MYLK2) was 100% and the remaining binding at 1 µM (NDR1) was 89%. It also gave a remaining binding at 1 µM (MTOR) of 55%, a remaining binding at 1 µM (EPHA3) of 100% and a remaining binding at 1 µM (DRAK2) of 100%. The remaining binding at 1 µM (CSK) was 100%, the “Percent Control” value (FLT3(ITD)) was 62 % Ctrl and the remaining binding at 1 µM (TBK1) was 91%. For the same compound, the remaining binding at 1 µM (CDK8) was 100%, the remaining binding at 1 µM (DMPK2) was 100% and the remaining binding at 1 µM (TLK1) was 100%. The remaining binding at 1 µM (QSK) was 96%, the remaining binding at 1 µM (LKB1) was 100% and the remaining binding at 1 µM [4] was 100%. It also gave a remaining binding at 1 µM (ABL1-nonphosphorylated) of 85%, a remaining binding at 1 µM (NEK3) of 83% and a remaining binding at 1 µM (CAMK2G) of 100%. The remaining binding at 1 µM (RIOK3) was 100%, the remaining binding at 1 µM [5] was 100% and the remaining binding at 1 µM (PCTK3) was 100%. The remaining binding at 1 µM (MARK2) was 94%.
